Measurements published in paper PMC7170901, “Design and efficient synthesis of pyrazoline and isoxazole bridged indole C-glycoside hybrids as potential anticancer agents” (Scientific Reports, 2020).

What was measured:
Format in all cases: cell-based
[1] = MTT cell viability assay in normal MCF-10A cells; conditions: human, MCF-10A normal mammary epithelial cells, read-out: Cell Viability (%) ± SD
Source text: (§1) MDA-MB-231 represents a specific subtype, known as the triple negative breast cancer (TNBC). […] We also included normal mammary epithelial MCF-10A cells in our experiments to confirm if the growth-inhibitory activities of the selected compounds are truly cancer cell-specific. […] Furthermore, none of these compounds did have any growth inhibitory activity against normal breast epithelial cell (MCF-10A). The IC50 values for these compounds against MDA-MB-231 cells (Fig. 2) are also included in Table 4 for comparison. Cell viability assay was performed as per standard protocols. After 72 h of cell incubation in the presence or absence of each compound, cell viability was evaluated by using MTT ((3-(4,5-dimethylthiazol-2-yl)-2,5-diphenyltetrazolium bromide)) (Himedia Pvt. Ltd, India). In brief, this is a homogeneous, colorimetric method for determining the number of viable cells in proliferation, cytotoxicity or chemosensitivity assays. MTT is bio reduced by cells into a formazan product that is […]. After 72 h of compound treatment, the medium was removed and 100 μL of MTT (0.5 mg ml^−1 in media) was added to the cells and kept in the dark for 3 h at 37 °C in the CO2 incubator and the formazan formed was dissolved in 100 μL DMSO (Dimethyl Sulfoxide). The absorbance of the formazan product at 595 nm was measured directly from 96-well assay plates without additional processing using a multimode plate reader (Bio-Rad) (iMark, India), as absorbance is directly proportional to the number of viable cells in culture. The percentage of viable cells in each group is determined with respect to the untreated control cells.

MDA-MB-453 cells = experiment: MTT cell viability assay in MDA-MB-453 cells; conditions: Homo sapiens, read-out: Cell Viability (%) ± SD
Source text: as §1

[2] = test system: MCF-7 breast cancer cells; experiment: MTT cell viability assay in MCF-7 cells; conditions: Homo sapiens, MCF7, read-out: Cell Viability (%) ± SD
[3] = test system: MDA-MB-231 (human breast cancer) cell line; experiment: MTT cell viability assay in MDA-MB-231 cells; conditions: for viability at 10 µM / viability at 25 µM / viability at 50 µM: MDA-MB-231, 72 h; for viability at 10 µM / viability at 25 µM / viability at 50 µM / Cell Viability (%) ± SD: 72 h, MTT
Protocol: IC50 values were determined by plotting values of percent cell viability against concentration of each of these compounds. […] The experiments were performed in triplicates, n = 3 and ± SE value was calculated for each data point.
The human breast cancer cell line MDA-MB-231 were cultured in Dulbecco’s Modified Eagle’s Medium (DMEM) (Gibco, St. Louis, USA) supplemented with 10% heat inactivated FBS (Fetal Bovine Serum, Gibco, USA) and 1% penicillin-streptomycin (Gibco Canada) in humidified CO2 incubator at 37 °C. The cells were maintained as a monolayer in 100 mm culture plate. The cells used for each experiment were of less than 8 passage number. Sub culturing of cells was performed every third day, followed by trypsin EDTA treatment.
Cell viability assay was performed as per standard protocols. […] Ltd, India). In brief, this is a homogeneous, colorimetric method for determining the number of viable cells in proliferation, cytotoxicity or chemosensitivity assays. MTT is bio reduced by cells into a formazan product that is soluble in the tissue culture medium. […] The absorbance of the formazan product at 595 nm was measured directly from 96-well assay plates without additional processing using a multimode plate reader (Bio-Rad) (iMark, India), as absorbance is directly proportional to the number of viable cells in culture. The percentage of viable cells in each group is determined with respect to the untreated control cells.

[4] = Homo sapiens, MDA-MB-231, 10 µM, read-out: Cell Viability (%) ± SD
[5] = Homo sapiens, MDA-MB-231, 25 µM, read-out: Cell Viability (%) ± SD
[6] = Homo sapiens, MDA-MB-231, 50 µM, read-out: Cell Viability (%) ± SD

| Molecule | viability at 10 µM [3, 4] [%] | viability at 25 µM [3, 5] [%] | viability at 50 µM [3, 6] [%] | also measured |
| --- | --- | --- | --- | --- |
| O=C(/C=C/c1c[nH]c2ccc([N+](=O)[O-])cc12)C[C@@H]1O[C@H](CO)[C@H](O)[C@H](O)[C@H]1O [Compound 14, (E)-4-(5-nitro-1H-indol-3-yl)-1-((2S,3R,4R,5R,6R)-3,4,5-trihydroxy-6-(hydroxymethyl)tetrahydro-2H-pyran-2-yl)but-3-en-2-one] | 73.6 ± 11.8 | 59 ± 12.5 | 60.6 ± 5.61 | viability at 72 h, 25 µM ([1]; 25 µM): 86.8 ± 2.8%; viability at 72 h, 50 µM ([1]; 50 µM): 84.6 ± 0.7%; viability at 72 h, 100 µM ([1]; 100 µM): 80 ± 1.5%; viability at 1 µM (MDA-MB-453 cells; MDA-MB-453, 1 µM): 80.8 ± 3.2%; viability at 10 µM (MDA-MB-453 cells; MDA-MB-453, 10 µM): 82.2 ± 11.5%; viability at 25 µM (MDA-MB-453 cells; MDA-MB-453, 25 µM): 65.3 ± 5.8%; viability at 1 µM ([2]; MCF-7, 1 µM): 100 ± 4.5%; viability at 10 µM ([2]; MCF-7, 10 µM): 69.8 ± 1.8%; viability at 25 µM ([2]; MCF-7, 25 µM): 66.8 ± 3% |
| COCCn1c2c([n+](Cc3cnccn3)c1C)C(=O)c1ccccc1C2=O [YM155, reference compound] |  |  |  | viability at 72 h, 0.02 µM ([1]; positive control at 20 nM): 48.2 ± 1.6%; viability at 0.02 µM (MDA-MB-453 cells; MDA-MB-453, positive control at 20 nM): 33.2 ± 1.5%; viability at 0.02 µM ([2]; MCF-7, positive control at 20 nM): 37.2 ± 1.7%; viability at 0.02 µM ([3]; Homo sapiens, MDA-MB-231, MDA-MB-231, positive control at 20 nM, read-out: Cell Viability (%) ± SD): 27.4 ± 4.93% |
| O=[N+]([O-])c1ccc2[nH]cc(C3CC(C[C@@H]4O[C@H](CO)[C@H](O)[C@H](O)[C@H]4O)=NN3)c2c1 (stereo partly shown) [Compound 26, (2 S,3 R,4 R,5 R,6 R)-2-((5-(5-nitro-1H-indol-3-yl)-4,5-dihydro-1H-pyrazol-3-yl)methyl)-6-(hydroxymethyl)tetrahydro-2H-pyran-3,4,5-triol] | 101 ± 9.67 | 98.25 ± 0.34 | 99.5 ± 1.88 |  |
| OC[C@H]1O[C@@H](Cc2cc(-c3c[nH]c4ccc(Cl)cc34)on2)[C@H](O)[C@@H](O)[C@H]1O [Compound 40, (2 S,3 R,4 R,5 R,6 R)-2-((5-(5-chloro-1H-indol-3-yl)isoxazol-3-yl)methyl)-6-(hydroxymethyl) tetrahydro-2H-pyran-3,4,5-triol] | 93.7 ± 2.68 | 96 ± 1.81 | 87.9 ± 4.71 |  |
| OC[C@H]1O[C@@H](CC2=NNC(c3c[nH]c4ccc(Br)cc34)C2)[C@H](O)[C@@H](O)[C@H]1O (stereo partly shown) [Compound 27, (2 S,3 R,4 R,5 R,6 R)-2-((5-(5-bromo-1H-indol-3-yl)-4,5-dihydro-1H-pyrazol-3-yl)methyl)-6-(hydroxymethyl)tetrahydro-2H-pyran-3,4,5-triol] | 90 ± 7.7 | 90.8 ± 7.09 | 97.7 ± 10.1 |  |
| OC[C@H]1O[C@@H](CC2=NNC(c3c[nH]c4ccccc34)C2)[C@@H](O)[C@@H](O)[C@@H]1O (stereo partly shown) [Compound 29, (2 S,3 S,4 R,5 S,6 R)-2-((5-(1H-indol-3-yl)-4,5-dihydro-1H-pyrazol-3-yl)methyl)-6-(hydroxy-methyl)tetrahydro-2H-pyran-3,4,5-triol] | 82.2 ± 7.65 | 76.6 ± 6.58 | 73.5 ± 8.45 |  |
| OC[C@H]1O[C@@H](CC2=NNC(c3c[nH]c4ccc(Br)cc34)C2)[C@@H](O)[C@@H](O)[C@@H]1O (stereo partly shown) [Compound 31, (2 S,3 S,4 R,5 S,6 R)-2-((5-(5-bromo-1H-indol-3-yl)-4,5-dihydro-1H-pyrazol-3-yl)methyl)-6-(hydroxymethyl)tetrahydro-2H-pyran-3,4,5-triol] | 91.4 ± 3.62 | 90.1 ± 6.77 | 87.6 ± 6.27 |  |
| O=[N+]([O-])c1ccc2[nH]cc(-c3cc(C[C@@H]4O[C@H](CO)[C@H](O)[C@H](O)[C@H]4O)no3)c2c1 [Compound 38, (2 R,3 R,4 R,5 R,6 S)-2-(hydroxymethyl)-6-((5-(5-nitro-1H-indol-3-yl)isoxazol-3-yl)methyl) tetrahydro-2H-pyran-3,4,5-triol] | 99.1 ± 5.63 | 94.5 ± 3.67 | 94.9 ± 4.49 |  |
| (E)-4-(1H-indol-3-yl)-1-((2S,3S,4R,5S,6R)-3,4,5-trihydroxy-6-(hydroxymethyl) tetrahydro-2H-pyran-2-yl) but-3-en-2-one [Compound 19] |  |  |  | Cell Viability (%) ± SD ([3]; MDA-MB-231, 10 µM): 102.51 ± 10.39%; Cell Viability (%) ± SD ([3]; MDA-MB-231, 25 µM): 89.20 ± 28.63%; Cell Viability (%) ± SD ([3]; MDA-MB-231, 50 µM): 71.48 ± 6.24% |
| O=C(/C=C/c1c[nH]c2ccc(Br)cc12)C[C@@H]1O[C@H](CO)[C@@H](O)[C@H](O)[C@H]1O [Compound 11, (E)-4-(5-bromo-1H-indol-3-yl)-1-((2S,3R,4R,5S,6R)-3,4,5-trihydroxy-6-(hydroxymethyl)tetrahydro-2H-pyran-2-yl)but-3-en-2-one] | 100 ± 23 | 100 ± 8.93 | 108 ± 2.89 |  |
| OC[C@H]1O[C@@H](Cc2cc(-c3c[nH]c4ccc(Br)cc34)on2)[C@H](O)[C@@H](O)[C@@H]1O [Compound 35, (2 S,3 R,4 R,5 S,6 R)-2-((5-(5-bromo-1H-indol-3-yl)isoxazol-3-yl)methyl)-6-(hydroxy-methyl)tetrahydro-2H-pyran-3,4,5-triol] | 95.5 ± 4.91 | 95.3 ± 3.6 | 93.9 ± 9.08 |  |
| O=[N+]([O-])c1ccc2[nH]cc(C3CC(C[C@@H]4O[C@H](CO)[C@@H](O)[C@H](O)[C@H]4O)=NN3)c2c1 (stereo partly drawn) [Compound 22, (2R,3S,4R,5R,6S)-2-(hydroxymethyl)-6-((5-(5-nitro-1H-indol-3-yl)-4,5-dihydro-1H-pyrazol-3-yl)methyl)tetrahydro-2H-pyran-3,4,5-triol] | 70.4 ± 13 | 68.6 ± 11.1 | 70.3 ± 6.17 |  |
